Data taken from patent US20100249064A1, “METHODS AND COMPOSITIONS FOR TREATING DISEASES AND CONDITIONS INVOLVING HIGHER MOLECULAR WEIGHT HYALURONAN” (University of Chicago, priority 2007, published 2010).
Entries after “also recorded” stand apart in the source; their conditions may differ.

Key:
MARCKS and NHE1 = test: LPS-induced phosphorylation of MARCKS and NHE1 (immunoprecipitation/immunoblot); type: cell-based, human; details: LPS 1 μg/ml, 4 hours, HMW-HA 100 nM or Y-27632 500 nM
purified HABP2 = target: T1, purified HABP2 (Homo sapiens, UniProt Q14520); test: HABP2 protease assay (QuantiCleave, succinylated casein); type: biochemical; details: purified HABP2, various concentrations of HA
T1 construct: host or cells: human pulmonary endothelial cells (EC); secreted into the medium, immunoprecipitated with anti-HABP2 antibody
Procedure: HABP2 protease assay. Protease activity is measured using the QuantiCleave™ Protease Assay Kit (Pierce). Briefly, the immunobeads are incubated with succinylated casein for one hour followed by development with TNBSA (2,4,6-trinitrobenzene sulfonic acid) and read at 450 nm.
HABP2 protein purification and protease activity determination. Media from HABP2 overexpression vector-transfected EC (Origene) was immunoprecipitated with anti-HABP2 antibody-conjugated Sepharose beads (Sigma). The immunobeads were then extensively washed in 50 mM Borate, pH=8.5 and eluted with 1M NaCl with 0.1% NP-40 and dialyzed against a 1,000 fold excess of 50 mM Borate, pH=8.5. Protein assays were performed to quantitate total protein. The purified protein was run on SDS-PAGE and either immunoblotted with anti-HABP2 antibody (Novus Biologicals) or stained with Imperial™ protein stain (Pierce) to check for purity. Protease activity was measured using the QuantiCleave™ Protease Assay Kit (Pierce). Briefly, the immunobeads were incubated with succinylated casein for one hour followed by development with TNBSA (2,4,6-trinitrobenzene sulfonic acid) and read at 450 nm.
Determination of the role of HMW-HA/HABP2/C1INH interactions in regulating angiogenesis in vitro. Human pulmonary EC (Cambrex), grown in EBM-2 complete medium (Cambrex) at 37° C. in a humidified atmosphere of 5% CO2, 95% air, with passages 6-10 used for experimentation will be treated with or without 100 nM HMW-HA and/or 100 nM VEGF in the presence or absence of HABP2 and/or C1INH overexpression vectors (Origene), exogenous purified recombinant HABP2 polyanion binding domain and/or C1INH (Novus Biologicals) and/or siRNA (scramble, HABP2 or C1INH). For HABP2 protease activity determination, media from HABP2 overexpressing EC (see above) was immunoprecipitated with anti-HABP2 antibody-conjugated Sepharose beads (Sigma). The immunobeads were then extensively washed in 50 mM Borate, pH=8.5 and protease activity was measured using the QuantiCleave™ Protease Assay Kit (Pierce). Briefly, the immunobeads were incubated with succinylated casein for one hour followed by development with TNBSA (2,4,6-trinitrobenzene sulfonic acid) and read at 450 nm.

caveolin-1 = test: Caveolin-1 expression in mouse lung homogenates (immunoblot); type: in vivo; details: HMW-HA+LPS
Procedure: (§1) Animal Preparation and Treatment. Male C57BL/6J, B6129N2, CD44^−/− or caveolin-1^−/− mice (8-10 weeks, Jackson Laboratories, Bar Harbor, Me.) were anesthetized with intraperitoneal ketamine (150 mg/kg) and acetylpromazine (15 mg/kg) before exposure of the right internal jugular vein via neck incision. LPS (2.5 mg/kg) or water (control) were instilled intratracheally. Four hours later, mice receive high MW HA (1.5 mg/kg) or water control through the internal jugular vein. The animals were allowed to recover for 24 hours after LPS before bronchioalveolar lavage protein and cytokine concentration and/or lung immunohistochemistry/immunoblot analysis (Peng et al., 2004).
Immunoblot analysis of CD44 and Caveolin-1 expression in control, LPS- and HA-treated mouse lung homogenates. CD44 is highly likely to be important in lung disease as CD44−/− mice develop lung fibrosis, inflammatory cell recruitment and accumulation of hyaluronan fragments at sites of lung injury (Teder et al., 2002). […] Caveolin-1 can be differentially regulated in various models of acute lung injury (ALI). Monocrotaline-induced rodent pulmonary hypertension results in a loss of lung EC caveolin-1 expression (Mathew et al., 2004). In contrast, there is no change in pulmonary caveolin-1 expression in lipopolyscaaharide (LPS)-induced sepsis with lung injury (Garrean et al., 2006). […]

[1] = tested on: LPS-induced murine lung vascular permeability; test: LPS-induced murine lung vascular permeability, bronchioalveolar lavage (BAL) protein and cytokines; type: in vivo, mouse; details: for LPS-induced pulmonary hyper-permeability (BAL protein concentration): wildtype C57BL/6J mice, LPS 2.5 mg/kg intratracheally, HMW-HA 1.5 mg/kg or HGF 50 μg/kg intravenously 4 hours after LPS, BAL at 24 hours
Procedure: Animal Preparation and Treatment—Male C57BL/6J and CD44 knockout mice (8-10 weeks, Jackson Laboratories, Bar Harbor, Me.) were anesthetized with intraperitoneal ketamine (150 mg/kg) and acetylpromazine (15 mg/kg) according to approved protocols. LPS (2.5 mg/kg) or saline (control) were instilled intratracheally and four hours later, HGF (50 μg/kg) or saline control delivered intravenously through the internal jugular vein. The animals were allowed to recover for 24 h followed by bronchioalveolar lavage protein analysis and/or lung immunohistochemistry.
Determination of Bronchioalveolar Lavage Protein Concentration—Bronchioalveolar lavage (BAL) was performed by an intratracheal injection of 1 cc of Hank's balanced salt solution followed by gentle aspiration. The recovered fluid was processed for protein concentration (BCA Protein Assay Kit; Pierce Chemical Co., Rockford, Ill.) as described (Su et al., 2004).
Animals. Male C57BL/6J mice, CD44 knockout mice, Caveolin-1 knockout mice (8-10 weeks, Jackson Laboratories, Bar Harbor, Me.) were anesthetized with intraperitoneal ketamine (150 mg/kg) and acetylpromazine (15 mg/kg) according to approved protocols. LPS (2.5 mg/kg) or saline (control) were instilled intratracheally and four hours later, HMW-HA (1.5 mg/kg) or saline control delivered intravenously through the internal jugular vein. The animals were allowed to recover for 24 hours followed by bronchioalveolar lavage protein analysis and/or lung immunohistochemistry.
Determination of protein concentration. Total protein concentration. TGF-alpha concentration. TGF-beta1 concentration. Bronchioalveolar lavage (BAL) was performed by an intratracheal injection of 1 cc of Hank's balanced salt solution followed by gentle aspiration. The recovered fluid was processed for protein concentration (BCA Protein Assay Kit; Pierce Chemical Co., Rockford, Ill.) or used to determine TNF-α and TGF-β1 concentrations using quantitative sandwich enzyme immunoassays (R & D Systems, Minneapolis, Minn.).
as §1
Determination of Bronchoavleolar Lavage Protein and Cytokine Concentration. Bronchioalveolar lavage (BAL) was performed by an intratracheal injection of 1 cc of Hank's balanced salt solution followed by gentle aspiration. The recovered fluid was processed for protein concentration (BCA Protein Assay Kit; Pierce Chemical Co., Rockford, Ill.) (Peng et. al., 2004). Cytokines (IL-6, TNFalpha) were measured using a Quantikine sandwich ELISA kit (R & D Systems).

[2] = wild type mice, LPS 2.5 mg/kg, HMW-HA 1.5 mg/kg i.v. after 4 hours

T1 sequence (Q14520 24-560): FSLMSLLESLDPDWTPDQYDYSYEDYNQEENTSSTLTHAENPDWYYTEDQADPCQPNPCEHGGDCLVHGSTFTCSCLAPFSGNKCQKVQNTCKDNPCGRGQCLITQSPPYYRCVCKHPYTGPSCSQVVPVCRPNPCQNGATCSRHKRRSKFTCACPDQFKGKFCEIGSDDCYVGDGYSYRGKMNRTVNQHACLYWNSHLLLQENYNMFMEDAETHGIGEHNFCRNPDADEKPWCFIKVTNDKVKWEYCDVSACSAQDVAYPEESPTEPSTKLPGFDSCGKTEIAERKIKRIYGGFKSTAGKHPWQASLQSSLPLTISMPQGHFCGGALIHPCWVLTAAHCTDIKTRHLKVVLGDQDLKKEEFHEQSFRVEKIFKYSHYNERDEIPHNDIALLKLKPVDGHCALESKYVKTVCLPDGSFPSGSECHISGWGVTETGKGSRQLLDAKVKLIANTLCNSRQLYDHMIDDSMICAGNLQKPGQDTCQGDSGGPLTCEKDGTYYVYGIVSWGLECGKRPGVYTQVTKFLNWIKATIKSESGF

hyaluronan [HMW-HA] was tested, and the “LPS-induced phosphorylation of MARCKS and NHE1” value (MARCKS and NHE1) was “inhibit LPS-induced phosphorylation of MARCKS and NHE1”, the HABP2 protease activity (purified HABP2) was “inhibits” and the HABP2 protease activity (purified HABP2; listed as High molecular weight hyaluronan) was “directly binds and inhibits the enzymatic activity of HABP2”. The HABP2 protease activity (purified HABP2; listed as high MW hyaluronan) was “reduced its activity”, the “caveolin-1 expression in mouse lungs” value (caveolin-1) was “did not significantly alter caveolin-1 expression” and the “protective effect on LPS-induced pulmonary hyper-permeability (BAL) in knockout mice” value ([1]; CD44 knockout (and, where stated, Caveolin-1 knockout) mice, same regimen) was “markedly attenuated in the CD44 knockout mouse; also recorded: did not protect from LPS-induced ALI in CD44 and Caveolin-1 knockout mice; also recorded: protection was blocked in the CD44 knockout mouse; also recorded: but not the CD44 knockout”. The “TGF-alpha concentration in BAL fluids” value [1, 2] was “reduced the enhancing effect of LPS”, the “TGF-beta1 concentration in BAL fluids” value [1, 2] was “reduced the enhancing effect of LPS” and the “LPS-induced pulmonary hyper-permeability (BAL protein concentration)” value [1] was “pulmonary hyper-permeability was attenuated; also recorded: significant difference (p<0.05) between LPS and HMW-HA+LPS treatment in the wildtype”. For the same substance, the “LPS-induced pulmonary hyper-permeability (BAL protein concentration)” value ([1]; listed as HWM-HA) was “protected from LPS-induced vascular leakiness in vivo”, the “LPS-induced pulmonary hyper-permeability (BAL protein concentration)” value ([1]; listed as High MW hyaluronan) was “reduced the enhancing effect of LPS on BAL protein concentration” and the “LPS-induced pulmonary hyper-permeability (BAL protein concentration)” value ([1]; listed as high MW HA) was “attenuated the vascular hyper-permeability”.
hyaluronan [LMW-HA, reference compound] was tested, and the HABP2 protease activity (purified HABP2) was “activates; also recorded: enhances” and the HABP2 protease activity (purified HABP2; listed as low MW hyaluronan) was “increased the protease activity of purified HABP2 in a dose-dependent manner”.
